What follows are cell lines tested with CN(C)C(=O)c1cc2cnc(Nc3ccc(N4CCNCC4)cn3)nc2n1C1CCCC1 [LEE011/Ribociclib].
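Note: breast cancer and non-malignant breast epithelial cell lines, Deep Dye Drop or Dye Drop imaging, nine half-log doses, GR normalized to time-zero plates and DMSO-only controls.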

Row | Cell Line | GR50, 72 h [µM]
1 | EFM19 | 1.71
2 | EVSAT | > 10
3 | HCC38 | 0.537
4 | HCC70 | > 10
5 | HCC202 | > 10
6 | HCC1143 | 3.65
7 | HCC1395 | 3.67
8 | HCC1419 | > 10
9 | HCC1806 | > 10
10 | HCC1937 | > 10
11 | HS578T | 2.33
12 | HTERT_HME1 | 1.2
13 | MCF7 | 0.185

Each cell line was assayed with CCCCOc1c(C(=O)c2c(F)cc(C)cc2F)c[nH]c2nncc1-2.

Row | Cell Line | GR50, 72 h [µM]
14 | EFM19 | 0.119
15 | EVSAT | 1.45
16 | HCC38 | 0.00391
17 | HCC70 | 0.00336
18 | HCC202 | 0.0699
19 | HCC1143 | 0.00177
20 | HCC1395 | 0.00575
21 | HCC1419 | 0.65
22 | HCC1806 | 0.278
23 | HCC1937 | < 0.001
24 | HS578T | 0.0165
25 | HTERT_HME1 | 0.0012
26 | MCF7 | 0.00767

These cell lines were tested with CCN1CCN(Cc2ccc(Nc3ncc(F)c(-c4cc(F)c5nc(C)n(C(C)C)c5c4)n3)nc2)CC1.

Row | Cell Line | GR50, 72 h [µM]
27 | EFM19 | 0.025
28 | EVSAT | 1.25
29 | HCC38 | 0.0446
30 | HCC70 | 1.9
31 | HCC202 | 2.43
32 | HCC1143 | 0.0703
33 | HCC1395 | 0.112
34 | HCC1419 | 0.0969
35 | HCC1806 | 0.554
36 | HCC1937 | 4.82
37 | HS578T | 0.0776
38 | HTERT_HME1 | 0.199
39 | MCF7 | 0.0236

These cell lines were tested with CN1CCN(C(=O)c2ccc3cc(CCNc4ncnc5ccc(C#N)cc45)ccc3c2)CC1 [senexin b].

Row | Cell Line | GR50, 72 h [µM]
40 | EFM19 | > 10
41 | EVSAT | > 10
42 | HCC38 | > 10
43 | HCC70 | > 10
44 | HCC202 | > 10
45 | HCC1143 | > 10
46 | HCC1395 | 5.9
47 | HCC1419 | 10
48 | HCC1806 | > 10
49 | HCC1937 | 4.95
50 | HS578T | > 10
51 | HTERT_HME1 | > 10
52 | MCF7 | > 10

These cell lines were tested with CC1(CCN(CC1)C2=CN=C(C(=N2)N)C3=C(C(=CC=C3)Cl)Cl)N [SHP099].

Row | Cell Line | GR50, 72 h [µM]
53 | EFM19 | > 10
54 | EVSAT | > 10
55 | HCC38 | > 10
56 | HCC70 | > 10
57 | HCC202 | > 10
58 | HCC1143 | > 10
59 | HCC1395 | > 10
60 | HCC1419 | > 10
61 | HCC1806 | > 10
62 | HCC1937 | > 10
63 | HS578T | > 10
64 | HTERT_HME1 | > 10
65 | MCF7 | > 10

These cell lines were tested with C1=CC2=C(C=CC(=C2)C=C3C(=O)NC(=NCC4=CC=CS4)S3)N=C1 [R0-3306].

Row | Cell Line | GR50, 72 h [µM]
66 | EFM19 | 6.14
67 | EVSAT | 5.54
68 | HCC38 | 7.29
69 | HCC70 | 4.53
70 | HCC202 | 5.71
71 | HCC1143 | 1.66
72 | HCC1395 | 0.463
73 | HCC1419 | 8.88
74 | HCC1806 | 5.39
75 | HCC1937 | 5.17
76 | HS578T | 4.28
77 | HTERT_HME1 | 4.01
78 | MCF7 | 6.26

The cell lines below were run with Cc1nn(C)c(COc2ccc(N3CCN(S(=O)(=O)N(C)C)CC3)cc2)c1-c1cccc2c(CCCOc3cccc4ccccc34)c(C(=O)O)n(CCN3CCOCC3)c12.

Row | Cell Line | GR50, 72 h [µM]
79 | EFM19 | > 10
80 | EVSAT | > 10
81 | HCC38 | > 10
82 | HCC70 | > 10
83 | HCC202 | > 10
84 | HCC1143 | > 10
85 | HCC1395 | > 10
86 | HCC1419 | > 10
87 | HCC1806 | > 10
88 | HCC1937 | > 10
89 | HS578T | > 10
90 | HTERT_HME1 | 0.899
91 | MCF7 | > 10

The cell lines below were run with COc1cccc2c1C(=O)c1c(O)c3c(c(O)c1C2=O)C[C@@](O)(C(=O)CO)C[C@@H]3O[C@H]1C[C@H](N)[C@H](O)[C@H](C)O1 [Doxorubicin].

Row | Cell Line | GR50, 72 h [µM]
92 | EFM19 | 0.0513
93 | EVSAT | 0.00911
94 | HCC38 | 0.00955
95 | HCC70 | 0.0108
96 | HCC202 | 0.0268
97 | HCC1143 | 0.00927
98 | HCC1395 | 0.0179
99 | HCC1419 | 0.0251
100 | HCC1806 | 0.0159
101 | HCC1937 | 0.0128
102 | HS578T | 0.00411
103 | HTERT_HME1 | 0.00471
104 | MCF7 | 0.0161

Each cell line was assayed with CC(=O)Nc1cccc(-n2c(=O)n(C3CC3)c(=O)c3c(Nc4ccc(I)cc4F)n(C)c(=O)c(C)c32)c1.

Row | Cell Line | GR50, 72 h [µM]
105 | EFM19 | > 1
106 | EVSAT | > 1
107 | HCC38 | 0.22
108 | HCC70 | 0.0019
109 | HCC202 | > 1
110 | HCC1143 | 0.00883
111 | HCC1395 | 0.172
112 | HCC1419 | 0.0308
113 | HCC1806 | > 1
114 | HCC1937 | > 1
115 | HS578T | 0.00636
116 | HTERT_HME1 | 0.00573
117 | MCF7 | > 1

What follows are cell lines tested with CNC(=O)c1cccc(-c2ccc3c(N4CCOC[C@@H]4C)nc(N4CCOC[C@@H]4C)nc3n2)c1 [AZD2014].

Row | Cell Line | GR50, 72 h [µM]
118 | EFM19 | 0.00131
119 | EVSAT | 0.00617
120 | HCC38 | 0.452
121 | HCC70 | < 0.001
122 | HCC202 | 0.00237
123 | HCC1143 | 0.413
124 | HCC1395 | 0.0101
125 | HCC1419 | < 0.001
126 | HCC1806 | 1.82
127 | HCC1937 | 0.0304
128 | HS578T | 0.0683
129 | HTERT_HME1 | 0.0169
130 | MCF7 | < 0.001

What follows are cell lines tested with NC(=O)Nc1cc(-c2cccc(F)c2)sc1C(=O)N[C@H]1CCCNC1 [AZD7762].

Row | Cell Line | GR50, 72 h [µM]
131 | EFM19 | 1.48
132 | EVSAT | 1.42
133 | HCC38 | 0.00948
134 | HCC70 | 0.0412
135 | HCC202 | 0.0585
136 | HCC1143 | 0.0557
137 | HCC1395 | 0.0217
138 | HCC1419 | 0.0686
139 | HCC1806 | 0.0166
140 | HCC1937 | 0.17
141 | HS578T | 0.0151
142 | HTERT_HME1 | 0.259
143 | MCF7 | 0.0414

What follows are cell lines tested with NC1(C(=O)N[C@@H](CCO)c2ccc(Cl)cc2)CCN(c2nc[nH]c3nccc2-3)CC1 [AZD5363].

Row | Cell Line | GR50, 72 h [µM]
144 | EFM19 | 1.63
145 | EVSAT | 0.0128
146 | HCC38 | > 10
147 | HCC70 | 0.0256
148 | HCC202 | > 10
149 | HCC1143 | > 10
150 | HCC1395 | 0.135
151 | HCC1419 | > 10
152 | HCC1806 | > 10
153 | HCC1937 | > 10
154 | HS578T | 4.82
155 | HTERT_HME1 | > 10
156 | MCF7 | > 10

These cell lines were tested with CC(C)n1nc(-c2ccc3oc(N)nc3c2)c2c(N)ncnc21 [INK128/MLN0128].

Row | Cell Line | GR50, 72 h [µM]
157 | EFM19 | 0.00896
158 | EVSAT | 0.0112
159 | HCC38 | 0.0191
160 | HCC70 | 0.0048
161 | HCC202 | 0.0112
162 | HCC1143 | 0.0405
163 | HCC1395 | 0.0108
164 | HCC1419 | 0.00475
165 | HCC1806 | 0.0524
166 | HCC1937 | 0.0515
167 | HS578T | 0.00906
168 | HTERT_HME1 | 0.0335
169 | MCF7 | 0.00298

These cell lines were tested with CC[C@@H]1C(=O)N(C)c2cnc(Nc3ccc(C(=O)N[C@H]4CC[C@H](N5CCN(CC6CC6)CC5)CC4)cc3OC)nc2N1C(C)C [Volasertib/BI6727].

Row | Cell Line | GR50, 72 h [µM]
170 | EFM19 | 0.0101
171 | EVSAT | 0.00932
172 | HCC38 | 0.00822
173 | HCC70 | 0.0066
174 | HCC202 | 0.015
175 | HCC1143 | 0.00459
176 | HCC1395 | 0.00321
177 | HCC1419 | 0.0207
178 | HCC1806 | 0.0028
179 | HCC1937 | 0.0119
180 | HS578T | 0.00257
181 | HTERT_HME1 | 0.0172
182 | MCF7 | 0.00287

Each cell line was assayed with O=C1NC(=O)[C@@H](c2cn3c4c(cccc24)CCC3)[C@@H]1c1c[nH]c2ccccc12 [Tivantinib/ARQ197].

Row | Cell Line | GR50, 72 h [µM]
183 | EFM19 | 0.658
184 | EVSAT | 0.373
185 | HCC38 | 0.309
186 | HCC70 | 0.335
187 | HCC202 | 0.816
188 | HCC1143 | 0.278
189 | HCC1395 | 0.481
190 | HCC1419 | 0.473
191 | HCC1806 | 0.272
192 | HCC1937 | 0.649
193 | HS578T | 0.337
194 | HTERT_HME1 | 0.0344
195 | MCF7 | 0.151

The cell lines below were run with Cc1nc(Nc2ncc(C(=O)Nc3c(C)cccc3Cl)s2)cc(N2CCN(CCO)CC2)n1 [Dasatinib].

Row | Cell Line | GR50, 72 h [µM]
196 | EFM19 | 0.0184
197 | EVSAT | 0.166
198 | HCC38 | 5.69
199 | HCC70 | 0.00964
200 | HCC202 | 0.0186
201 | HCC1143 | 0.139
202 | HCC1395 | 0.0748
203 | HCC1419 | 0.825
204 | HCC1806 | 0.0537
205 | HCC1937 | 0.113
206 | HS578T | 0.0386
207 | HTERT_HME1 | 0.183
208 | MCF7 | 0.0694

What follows are cell lines tested with O=C(CCCCCCC(=O)Nc1ccccc1)NO [Vorinostat].

Row | Cell Line | GR50, 72 h [µM]
209 | EFM19 | 2.66
210 | EVSAT | 2.5
211 | HCC38 | 0.96
212 | HCC70 | 0.413
213 | HCC202 | 3.57
214 | HCC1143 | 0.91
215 | HCC1395 | 3.27
216 | HCC1419 | 1.8
217 | HCC1806 | 1.13
218 | HCC1937 | 1.91
219 | HS578T | 0.904
220 | HTERT_HME1 | 3.02
221 | MCF7 | 0.542
